Results as given in PMC5650142, “GPR40 partial agonists and AgoPAMs: Differentiating effects on glucose and hormonal secretions in the rodent” (PLoS ONE, 2017).
Several values for one entry are separate records, joined by “and”; a condition that tells them apart may be missing. Equal entries are not always repeated.

How the values were obtained:
GK rats = test: GK rat chronic efficacy (28 days: glucose, food intake, body weight, GLP-1, GIP, PYY, insulin, glucagon); assay type: in vivo; parameters: Food Intake Over Time (Fig 3C) / Total Body Weight Change Over Time / Active GLP-1 Levels Over Time: unit not given here; conditions: 30 mpk; for Total Body Weight Change Over Time / Active GLP-1 Levels Over Time / GIP Levels Over Time / PYY Levels Over Time / Plasma Insulin Over Time: GK rats
Method in brief: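 Daily oral gavage for 28 days, AP1 or AP3 at 30 mg/kg in 0.5% methylcellulose; MK-8666 at 30 mg/kg in feed. Fed glucose, food intake and weight on days 10, 17, 23, 28; glucose, GLP-1, GIP, PYY after 6 h fast, 1 h post dose. Hormones by MSD immunoassay or bead panel.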

[1] = system: wild type and GPR40-/- mice; test: Mouse incretin measurements (plasma glucagon, wild type and GPR40-/- mice); assay type: in vivo; conditions: for Plasma Glucagon: @ 30, individual animals (Fig 6A)
Method: Wild type and GPR40-/- mice were weighed the day prior to dosing. Food was removed from mice at lights on. 2 hours later mice were dosed via oral gavage (PO) at a volume of 10 ml/kg with vehicle (0.5% methylcellulose), AP1 at 30 mg/kg, or AP3 at 30 mg/kg. At 60 minutes post dose, mice were euthanized via CO2 asphyxiation. Blood was collected via cardiac puncture.
Blood for insulin, glucagon, GLP-1, GIP, and PYY measurements was collected into K2EDTA Microtainer tubes (BD, Franklin Lakes, NJ) pre-treated with DPP4 inhibitor (Millipore, Billerica, MA) and cOmplete™ Protease Inhibitor Cocktail Tablets (Roche Diagnostics, Indianapolis, IN). Tubes were centrifuged for 10 minutes at 5000 RPM, and plasma was aliquotted for analysis. Plasma insulin levels were measured via EIA (Mesoscale Discovery ELISA Kit, Gaithersburg MD). Rat plasma total GLP-1 was measured using Total GLP-1 (ver.2) Assay Kit (Cat#: K150JVC). The measurement of active GLP-1 was carried out in a similar manner as that described for total GLP-1 assay with the exception that MSD Active GLP-1 (ver. 2) assay kit (Cat# K150JWC) was used. Rat plasma glucagon was measured using an in-house glucagon assay developed as a MSD format sandwich immunoassay (Merck & Co., Inc., MRL, Kenilworth, NJ USA). The antibody specificity was cross validated via mass- spec using procedures described in Lee et al. Briefly, MSD Streptavidin Gold plates were coated with 2 μg/ml biotin mouse monoclonal antibody generated to glucagon. Test samples were added to the plates and a separate Sulfo- tagged monoclonal antibody was used to detect the captured glucagon protein (2 μg/ml). The ELISA was carried out in the standard reagents in the MSD format. The plate was read on the SECTOR Imager 6000 Reader. Metabolic hormones GIP (Gastric Inhibitory Polypeptide) and PYY (Peptide YY) were measured in rat plasma using the Rat Metabolic Magnetic Bead Panel (EMD Millipore, Billerica, MA). The assay was performed according to manufacturer protocol.

SMILES: C[C@H](C(=O)O)[C@H](c1ccc2c(c1)O[C@H](C1CN(Cc3cc(C(F)(F)F)ccc3C(F)(F)F)C1)CC2)C1CC1 [AP3]
- Food Intake Over Time (Fig 3C) (GK rats; Day 10): 15.815 and 14.78 and 14.855 and 15.07 and 14.37
- Food Intake Over Time (Fig 3C) (GK rats; Day 17): 16.6286 and 16.6643 and 16.8143 and 16.8286 and 16.8071
- Food Intake Over Time (Fig 3C) (GK rats; Day 23): 18.5083 and 18.3917 and 17.85 and 19.125 and 17.525
- Food Intake Over Time (Fig 3C) (GK rats; Day 28): 17.91 and 18.83 and 18.78 and 18.96 and 19.28
- Total Body Weight Change Over Time (GK rats; Day 0, individual animals (Fig 3D)): 0
- Active GLP-1 Levels Over Time (GK rats; Day 0, individual animals (Fig 4B), 30 mg/kg): 1.077 and 2.563 and 1.567 and 0.8713 and 1.148 and 1.431 and 1.186 and 1.3237 and 1.438 and 1.6108
- GIP Levels Over Time (GK rats; Day 0, individual animals (Fig 4C), 30 mg/kg): 64.6 and 61.42 and 49.69 and 65.31 and 46.23 (2×) and 37.69 and 48.72 and 40.59 and 29.52
- PYY Levels Over Time (GK rats; Day 0, individual animals (Fig 4D), 30 mg/kg, in pg/mL (unit assumed)): 45.68 and 75.54 and 74.62 and 61.64 and 36.39 and 74.15 and 136.82 and 43.52 and 46.38 and 67.65
- Plasma Insulin Over Time (GK rats; Day 0, individual animals (Fig 5A), 30 mg/kg): 1.29 ng/mL and 1.017 ng/mL and 1.844 ng/mL and 1.516 ng/mL and 2.832 ng/mL and 2.437 ng/mL and 2.602 ng/mL and 2.286 ng/mL and 2.384 ng/mL and 3.155 ng/mL
- Total Body Weight Change Over Time (GK rats; Day 10, individual animals (Fig 3D), 30 mg/kg): 11 and 17 and 1 (4×) and 8 and 2 and -5 and -10
- Active GLP-1 Levels Over Time (GK rats; Day 10, individual animals (Fig 4B), 30 mg/kg): 10.2264 and 10.1136 and 9.093 and 7.341 and 9.911 and 6.136 and 9.947 and 8.858 and 9.564 and 4.836
- GIP Levels Over Time (GK rats; Day 10, individual animals (Fig 4C), 30 mg/kg, in pg/mL (unit assumed)): 131.59 and 538.63 and 268.56 and 356.56 and 280.21 and 297.28 and 251.81 and 343.6 and 366.22 and 226.85
- PYY Levels Over Time (GK rats; Day 10, individual animals (Fig 4D), 30 mg/kg, in pg/mL (unit assumed)): 327.63 and 434.04 and 220.17 and 263.06 and 264.64 and 198.53 and 67.33 and 282.5 and 263.78 and 239.29
- Plasma Insulin Over Time (GK rats; Day 10, individual animals (Fig 5A), 30 mg/kg): 0.805 ng/mL and 1.032 ng/mL and 1.336 ng/mL and 1.205 ng/mL and 1.609 ng/mL and 1.271 ng/mL and 0.3056 ng/mL and 1.028 ng/mL and 1.285 ng/mL and 1.24 ng/mL
- Total Body Weight Change Over Time (GK rats; Day 17, individual animals (Fig 3D), 30 mg/kg): 17 and 22 and 6 (2×) and 19 and 5 and 10 and 7 and 3 and 4
- Active GLP-1 Levels Over Time (GK rats; Day 17, individual animals (Fig 4B), 30 mg/kg): 8.7 and 6.18 and 9.28 and 4.41 and 6.22 and 9.2 and 7.03 and 4.78 and 4.82 and 5.22
- GIP Levels Over Time (GK rats; Day 17, individual animals (Fig 4C), 30 mg/kg, in pg/mL (unit assumed)): 453.42 and 366.18 and 475.48 and 267.46 and 451.8 and 353.69 and 400.36 and 407.49 and 350.93
- PYY Levels Over Time (GK rats; Day 17, individual animals (Fig 4D), 30 mg/kg, in pg/mL (unit assumed)): 179 and 263.66 and 236.63 and 203.98 and 272.19 and 278.33 and 130.51 and 189.28 and 188.49
- Plasma Insulin Over Time (GK rats; Day 17, individual animals (Fig 5A), 30 mg/kg): 0.5609 ng/mL and 0.9183 ng/mL and 0.2807 ng/mL and 1.641 ng/mL and 1.961 ng/mL and 1.708 ng/mL and 1.453 ng/mL and 0.6985 ng/mL and 1.1926 ng/mL and 1.855 ng/mL
- Total Body Weight Change Over Time (GK rats; Day 23, individual animals (Fig 3D), 30 mg/kg): 28 and 34 and 22 and 15 and 18 and 7 and 14 and 17 and 6 and 4
- Total Body Weight Change Over Time (GK rats; Day 28, individual animals (Fig 3D), 30 mg/kg): 30 and 36 and 25 and 20 and 21 and 10 and 19 and 22 and 14 (2×)
- Active GLP-1 Levels Over Time (GK rats; Day 28, individual animals (Fig 4B), 30 mg/kg): 7.945 and 6.4879 and 5.324 and 10.6145 and 8.6355 and 6.965 and 4.915 and 7.012 and 6.997 and 8.043
- GIP Levels Over Time (GK rats; Day 28, individual animals (Fig 4C), 30 mg/kg, in pg/mL (unit assumed)): 257.43 and 223.283 and 216.92 and 196.33 and 188.58 and 171.99 and 248.64 and 189.72 and 162.6 and 177.95
- PYY Levels Over Time (GK rats; Day 28, individual animals (Fig 4D), 30 mg/kg, in pg/mL (unit assumed)): 237.97 and 76.0833 and 195.93 and 219.09 and 189.97 and 176.63 and 223.29 and 158.15 and 160.92 and 153.75
- Plasma Insulin Over Time (GK rats; Day 28, individual animals (Fig 5A), 30 mg/kg): 0.8153 ng/mL and 0.3115 ng/mL and 0.9427 ng/mL and 0.8881 ng/mL and 1.431 ng/mL and 0.8809 ng/mL and 1.428 ng/mL and 1.376 ng/mL and 1.352 ng/mL and 1.27 ng/mL
- Plasma Glucagon ([1]; KO mice): 20.25 pg/mL and 37.44 pg/mL and 95.8 pg/mL and 40.58 pg/mL and 53.81 pg/mL and 63.13 pg/mL and 24.92 pg/mL
- circulating glucagon ([1]; WT mice, 30 mg/kg PO, 1h post dose): increase
- Plasma Glucagon ([1]; WT mice): 137.56 pg/mL and 161.08 pg/mL and 195.45 pg/mL and 174.67 pg/mL and 101.1 pg/mL and 67.12 pg/mL and 161.82 pg/mL
